In US7862811B2, “Protease inhibition for prevention or treatment of heart failure” (Regents of the University of Colorado, priority 2004, dated 2011):
Square brackets hold non-standard residues; d marks the D form. Peptide text beside a SMILES is read from it. * marks the point of attachment. Nle = CCCC[C@H](N)C(=O)O; Cbz = O=C(OCc1ccccc1)*

Key:
MMP = conditions: acute pig model, orally-active; cited from earlier work
[1] = tested on: RV contractile dysfunction from acute RV pressure overload
Description: Pigs were subjected to RV pressure overload by constriction of the main pulmonary artery for 90 min (mean PASP 63 mmHg), followed by 30 min recovery.
Animal care: Domestic farm pigs (25-40 kg) are sedated with IM injection of ketamine HCl, followed by IV administration of fentanyl or propofol and α-chloralose. In most exemplary protocols, experiments are performed under deep general anesthesia using α-chloralose. Following anesthetic induction, pigs are intubated via tracheotomy and ventilated using a pressure-cycled ventilator. Mechanical respiration is adjusted to maintain physiologic values of arterial pH, pO2, and pCO2. All experiments are non-survival: at the conclusion of each experiment, supplemental α-chloralose is given prior to inducing ventricular fibrillation (KCl 10%, 25 cc infused IV).
Instrumentation and Hemodynamic Measurements. The experimental preparation is similar to that previously described (51). After exposure via median sternotomy, the heart is instrumented as illustrated in Appendix A.
For calpain inhibitor experiments, the proximal portion of the right coronary artery is dissected free, fitted with a transit-time ultrasonic flow probe, and cannulated with a 26 g polyethylene catheter as described (52). Digitized hemodynamic data are analyzed as previously described (53) and in Appendix A.
The purpose of this experiment is to determine whether calpain activation is mechanistically related to the development of RV dysfunction from pressure overload. Open-chest pigs will be instrumented as described. A 26 g polyethylene catheter will be inserted into the right coronary artery. […] The infusion will be begun 30 min prior to beginning pulmonary artery constriction and continued throughout the experiment. Biopsies of the RV myocardium will be obtained, followed by baseline hemodynamic measurements. Pigs will then be subjected to RV pressure overload by constriction of the main pulmonary artery for 90 min. Hemodynamic measurements will be repeated 30 min after relief of pressure overload, and a second set of RV biopsies obtained. […]

[2] = tested on: m-calpain from porcine kidney; conditions: cited from earlier work
Molt-4 cells = conditions: cited from earlier work
cultured rat lenses = conditions: calcium ionophore A23187; cited from earlier work
isolated rat hearts [3] = conditions: global ischemia; cited from earlier work
isolated rat hearts [4] = conditions: elevated LV end-diastolic pressure without ischemia; cited from earlier work

For `NC(=O)C1=C(O)C[C@@H]2C[C@@H]3Cc4cccc(O)c4C(=O)C3=C(O)[C@]2(O)C1=O` [COL-3], the MMP-mediated lung injury (MMP) is given as “prevent”.

With `CC(C)[C@H](NC(=O)OCc1ccccc1)C(=O)N[C@H](C=O)Cc1ccccc1` [MDL-28170, carbobezoxy-valinyl-phenylalaninal] (Cbz-Val-Phe-aldehyde) the “attenuation of RV dysfunction resulting from acute RV pressure overload (RVPO)” value ([1]; 90 min RVPO, 30 min recovery, versus vehicle) was “more than 50%”, the independent hemodynamic effects ([1]; pig, in vivo) was “no independent hemodynamic effects” and the “preload-adjusted external work of the RV free wall” value ([1]; thirty min after release of pulmonary artery constriction, n=7, p<0.05 vs vehicle) was 69 % of baseline.

For `CC(C)C[C@@H](C=O)NC(=O)[C@@H](NS(=O)(=O)c1ccc(F)cc1)C(C)C` [SJA6017, N-(4-fluorophenylsulfonyl)-L-valyl-L-leucinal], the “binding to the active site of m-calpain” value ([2]; casein zymography) is listed as “reversibly bound”, the “inhibition of purified m-calpain” value ([2]; in vitro) is listed as “strong inhibition” and the cell permeability (Molt-4 cells) is listed as “cell-permeable”. The “nuclear opacity and proteolysis of crystallins and alpha-spectrin” value (cultured rat lenses) was “reduced”.

For `CCCC[C@@H](C=O)NC(=O)[C@H](CC(C)C)NC(=O)[C@H](CC(C)C)NC(C)=O` [calpain inhibitor-1] (Ac-Leu-Leu-[Nle]-aldehyde), the “cytoskeletal degradation and myocardial stunning” value (isolated rat hearts [3]) is listed as “attenuates”.

For `CCCC[C@@H](C=O)NC(=O)[C@H](CC(C)C)NC(=O)OCc1ccccc1` [calpeptin], the “TnI degradation and stunning” value (isolated rat hearts [4]) is given as “prevented”.
